Results reported in BindingDB's records for doi:10.1016/j.bmcl.2009.09.017 (Pfizer, 2009).

Experiment: Antagonist activity at P2Y12 receptor in human platelet rich plasma assessed as inhibition of ADP-induced platelet aggregation by light transmission aggregometry
`CCCCCOC(=O)N1CCN(C(=O)[C@H](CCC(=O)O)NC(=O)c2nc(-c3ccccc3)cc(N3CCC(N4CCOCC4)CC3)n2)CC1` [(S)-4-(4-(4-morpholinopiperidin-1-yl)-6-phenylpyrimidine-2-carboxamido)-5-oxo-5-(4-(pentyloxycarbonyl)piperazin-1-yl)pentanoic acid] gave an IC50 of 3000 nM. Compound `CCCCCOC(=O)N1CCN(C(=O)[C@H](CCC(=O)O)NC(=O)c2nc(OCC3CCN(C)CC3)cc(-c3ccccc3)n2)CC1` [(S)-4-(4-((1-methylpiperidin-4-yl)methoxy)-6-phenylpyrimidine-2-carboxamido)-5-oxo-5-(4-(pentyloxycarbonyl)piperazin-1-yl)pentanoic acid] has an IC50 of 3800 nM. For `CCCCCOC(=O)N1CCN(C(=O)[C@H](CCC(=O)O)NC(=O)c2nc(-c3ccccc3)cc(N3CCOCC3)n2)CC1` [(S)-4-(4-morpholino-6-phenylpyrimidine-2-carboxamido)-5-oxo-5-(4-(pentyloxycarbonyl)piperazin-1-yl)pentanoic acid], the IC50 was over 10000 nM. In the case of `CCCCCOC(=O)N1CCN(C(=O)[C@H](CCC(=O)O)NC(=O)c2cc(NC3CCN(C(C)C)CC3)nc(-c3ccccc3)n2)CC1` [(S)-4-(6-(1-isopropylpiperidin-4-ylamino)-2-phenylpyrimidine-4-carboxamido)-5-oxo-5-(4-(pentyloxycarbonyl)piperazin-1-yl)pentanoic acid], the IC50 is reported as 3700 nM. `CCCCCOC(=O)N1CCN(C(=O)[C@H](CCC(=O)O)NC(=O)c2cc(OCCN(CC)CC)nc(-c3ccccc3)n2)CC1` [(S)-4-(6-(2-(diethylamino)ethoxy)-2-phenylpyrimidine-4-carboxamido)-5-oxo-5-(4-(pentyloxycarbonyl)piperazin-1-yl)pentanoic acid] showed an IC50 of 15000 nM. `CCCCCOC(=O)N1CCN(C(=O)[C@H](CCC(=O)O)NC(=O)c2cc(SCCO)nc(-c3ccccc3)n2)CC1` [(S)-4-(6-(2-hydroxyethylthio)-2-phenylpyrimidine-4-carboxamido)-5-oxo-5-(4-(pentyloxycarbonyl)piperazin-1-yl)pentanoic acid] showed an IC50 of over 10000 nM. Compound `CCCCCOC(=O)N1CCN(C(=O)[C@H](CCC(=O)O)NC(=O)c2cc(OCCOC)nc(-c3ccccc3)n2)CC1` [(S)-4-(6-(2-methoxyethoxy)-2-phenylpyrimidine-4-carboxamido)-5-oxo-5-(4-(pentyloxycarbonyl)piperazin-1-yl)pentanoic acid] has an IC50 of 7900 nM. Work on `CCCCCOC(=O)N1CCN(C(=O)[C@H](CCC(=O)O)NC(=O)c2cc(NCCOC)nc(-c3ccccc3)n2)CC1` [(S)-4-(6-(2-methoxyethylamino)-2-phenylpyrimidine-4-carboxamido)-5-oxo-5-(4-(pentyloxycarbonyl)piperazin-1-yl)pentanoic acid] yielded an IC50 of 2600 nM. With `CCCCCOC(=O)N1CCN(C(=O)[C@H](CCC(=O)O)NC(=O)c2cc(NCCCN(C)C)nc(-c3ccccc3)n2)CC1` [(S)-4-(6-(3-(dimethylamino)propylamino)-2-phenylpyrimidine-4-carboxamido)-5-oxo-5-(4-(pentyloxycarbonyl)piperazin-1-yl)pentanoic acid] the IC50 was 2600 nM. `CCCCCOC(=O)N1CCN(C(=O)[C@H](CCC(=O)O)NC(=O)c2cc(N3CC(OCC)C3)nc(-c3ccccc3)n2)CC1` [(S)-4-(6-(3-ethoxyazetidin-1-yl)-2-phenylpyrimidine-4-carboxamido)-5-oxo-5-(4-(pentyloxycarbonyl)piperazin-1-yl)pentanoic acid] showed an IC50 of 4100 nM. In the case of `CCCCCOC(=O)N1CCN(C(=O)[C@H](CCC(=O)O)NC(=O)c2cc(N3CC(O)C3)nc(-c3ccccc3)n2)CC1` [(S)-4-(6-(3-hydroxyazetidin-1-yl)-2-phenylpyrimidine-4-carboxamido)-5-oxo-5-(4-(pentyloxycarbonyl)piperazin-1-yl)pentanoic acid], the IC50 is reported as 3500 nM. For `CCCCCOC(=O)N1CCN(C(=O)[C@H](CCC(=O)O)NC(=O)c2cc(OCCCN3CCOCC3)nc(-c3ccccc3)n2)CC1` [(S)-4-(6-(3-morpholinopropoxy)-2-phenylpyrimidine-4-carboxamido)-5-oxo-5-(4-(pentyloxycarbonyl)piperazin-1-yl)pentanoic acid], the IC50 was 8700 nM. For `CCCCCOC(=O)N1CCN(C(=O)[C@H](CCC(=O)O)NC(=O)c2cc(N3CCC(CC(=O)N4CCC4)CC3)nc(-c3ccccc3)n2)CC1` [(S)-4-(6-(4-(2-(azetidin-1-yl)-2-oxoethyl)piperidin-1-yl)-2-phenylpyrimidine-4-carboxamido)-5-oxo-5-(4-(pentyloxycarbonyl)piperazin-1-yl)pentanoic acid], the IC50 was 1000 nM. Compound `CCCCCOC(=O)N1CCN(C(=O)[C@H](CCC(=O)O)NC(=O)c2cc(N3CCC(CC(=O)N(CC)CC)CC3)nc(-c3ccccc3)n2)CC1` [(S)-4-(6-(4-(2-(diethylamino)-2-oxoethyl)piperidin-1-yl)-2-phenylpyrimidine-4-carboxamido)-5-oxo-5-(4-(pentyloxycarbonyl)piperazin-1-yl)pentanoic acid] has an IC50 of 2600 nM. `CCCCCOC(=O)N1CCN(C(=O)[C@H](CCC(=O)O)NC(=O)c2cc(N3CCN(CC(=O)N(C)C)CC3)nc(-c3ccccc3)n2)CC1` [(S)-4-(6-(4-(2-(dimethylamino)-2-oxoethyl)piperazin-1-yl)-2-phenylpyrimidine-4-carboxamido)-5-oxo-5-(4-(pentyloxycarbonyl)piperazin-1-yl)pentanoic acid] gave an IC50 of 530 nM. With `CCCCCOC(=O)N1CCN(C(=O)[C@H](CCC(=O)O)NC(=O)c2cc(N3CCC(CCN(C)C)CC3)nc(-c3ccccc3)n2)CC1` [(S)-4-(6-(4-(2-(dimethylamino)ethyl)piperidin-1-yl)-2-phenylpyrimidine-4-carboxamido)-5-oxo-5-(4-(pentyloxycarbonyl)piperazin-1-yl)pentanoic acid] the IC50 was 400 nM. `CCCCCOC(=O)N1CCN(C(=O)[C@H](CCC(=O)O)NC(=O)c2cc(N3CCC(CC(=O)NCC)CC3)nc(-c3ccccc3)n2)CC1` [(S)-4-(6-(4-(2-(ethylamino)-2-oxoethyl)piperidin-1-yl)-2-phenylpyrimidine-4-carboxamido)-5-oxo-5-(4-(pentyloxycarbonyl)piperazin-1-yl)pentanoic acid] gave an IC50 of 1600 nM. Work on `CCCCCOC(=O)N1CCN(C(=O)[C@H](CCC(=O)O)NC(=O)c2cc(N3CCC(CC(=O)NC)CC3)nc(-c3ccccc3)n2)CC1` [(S)-4-(6-(4-(2-(methylamino)-2-oxoethyl)piperidin-1-yl)-2-phenylpyrimidine-4-carboxamido)-5-oxo-5-(4-(pentyloxycarbonyl)piperazin-1-yl)pentanoic acid] yielded an IC50 of 1100 nM. For `CCCCCOC(=O)N1CCN(C(=O)[C@H](CCC(=O)O)NC(=O)c2cc(N3CCC(CCN)CC3)nc(-c3ccccc3)n2)CC1` [(S)-4-(6-(4-(2-aminoethyl)piperidin-1-yl)-2-phenylpyrimidine-4-carboxamido)-5-oxo-5-(4-(pentyloxycarbonyl)piperazin-1-yl)pentanoic acid], the IC50 was 620 nM. `CCCCCOC(=O)N1CCN(C(=O)[C@H](CCC(=O)O)NC(=O)c2cc(N3CCC(OCCO)CC3)nc(-c3ccccc3)n2)CC1` [(S)-4-(6-(4-(2-hydroxyethoxy)piperidin-1-yl)-2-phenylpyrimidine-4-carboxamido)-5-oxo-5-(4-(pentyloxycarbonyl)piperazin-1-yl)pentanoic acid] showed an IC50 of 1300 nM. `CCCCCOC(=O)N1CCN(C(=O)[C@H](CCC(=O)O)NC(=O)c2cc(N3CCC(OCCOC)CC3)nc(-c3ccccc3)n2)CC1` [(S)-4-(6-(4-(2-methoxyethoxy)piperidin-1-yl)-2-phenylpyrimidine-4-carboxamido)-5-oxo-5-(4-(pentyloxycarbonyl)piperazin-1-yl)pentanoic acid] showed an IC50 of 1400 nM. For `CCCCCOC(=O)N1CCN(C(=O)[C@H](CCC(=O)O)NC(=O)c2cc(N3CCN(CCOC)CC3)nc(-c3ccccc3)n2)CC1` [(S)-4-(6-(4-(2-methoxyethyl)piperazin-1-yl)-2-phenylpyrimidine-4-carboxamido)-5-oxo-5-(4-(pentyloxycarbonyl)piperazin-1-yl)pentanoic acid], the IC50 was 2200 nM. For `CCCCCOC(=O)N1CCN(C(=O)[C@H](CCC(=O)O)NC(=O)c2cc(N3CCC(CCOC)CC3)nc(-c3ccccc3)n2)CC1` [(S)-4-(6-(4-(2-methoxyethyl)piperidin-1-yl)-2-phenylpyrimidine-4-carboxamido)-5-oxo-5-(4-(pentyloxycarbonyl)piperazin-1-yl)pentanoic acid], the IC50 was 6300 nM. `CCCCCOC(=O)N1CCN(C(=O)[C@H](CCC(=O)O)NC(=O)c2cc(N3CCC(COCCOC)CC3)nc(-c3ccccc3)n2)CC1` [(S)-4-(6-(4-((2-methoxyethoxy)methyl)piperidin-1-yl)-2-phenylpyrimidine-4-carboxamido)-5-oxo-5-(4-(pentyloxycarbonyl)piperazin-1-yl)pentanoic acid] gave an IC50 of 2000 nM. For `CCCCCOC(=O)N1CCN(C(=O)[C@H](CCC(=O)O)NC(=O)c2cc(N3CCC(CNCC)CC3)nc(-c3ccccc3)n2)CC1` [(S)-4-(6-(4-((ethylamino)methyl)piperidin-1-yl)-2-phenylpyrimidine-4-carboxamido)-5-oxo-5-(4-(pentyloxycarbonyl)piperazin-1-yl)pentanoic acid], the IC50 was 770 nM. `CCCCCOC(=O)N1CCN(C(=O)[C@H](CCC(=O)O)NC(=O)c2cc(N3CCC(CNC)CC3)nc(-c3ccccc3)n2)CC1` [(S)-4-(6-(4-((methylamino)methyl)piperidin-1-yl)-2-phenylpyrimidine-4-carboxamido)-5-oxo-5-(4-(pentyloxycarbonyl)piperazin-1-yl)pentanoic acid] gave an IC50 of 740 nM. For `CCCCCOC(=O)N1CCN(C(=O)[C@H](CCC(=O)O)NC(=O)c2cc(N3CCC(CN)CC3)nc(-c3ccccc3)n2)CC1` [(S)-4-(6-(4-(aminomethyl)piperidin-1-yl)-2-phenylpyrimidine-4-carboxamido)-5-oxo-5-(4-(pentyloxycarbonyl)piperazin-1-yl)pentanoic acid], the IC50 was 490 nM. With `CCCCCOC(=O)N1CCN(C(=O)[C@H](CCC(=O)O)NC(=O)c2cc(N3CCC(C(=O)N4CCC4)CC3)nc(-c3ccccc3)n2)CC1` [(S)-4-(6-(4-(azetidine-1-carbonyl)piperidin-1-yl)-2-phenylpyrimidine-4-carboxamido)-5-oxo-5-(4-(pentyloxycarbonyl)piperazin-1-yl)pentanoic acid] the IC50 was 230 nM.
